According to US6001808A, “Method of treating herpes virus infections with spermostatic gramicidin” (Metatron, Inc., priority 1997, dated 1999):
Values after ≈ are worked out from the molar mass of the structure shown. Read-outs that look alike come from different tables or passages of the source.

Legend:
HSV-1 = experiment: HSV antigen ELISA, viral yield in WI-38 fibroblasts at 24 hours; type: cell-based, herpes simplex virus type 1 (HSV-1)
Procedure: (§1) The effect of gramicidin on the replication of herpes simplex viruses (HSV) type 1 and 2 has been examined and compared to the effect of acyclovir--the nucleoside analog used in the prior art for the therapy of herpes virus infections. Human WI-38 fibroblasts were inoculated with either type of HSV in the presence of serial dilutions of gramicidin (10-0.001 mcg/ml) and reduction in viral yield was measured at 24 hours by ELISA. […] The average 50% inhibitory dose (IC50) of gramicidin against 3 HSV-1 and 4 HSV-2 solates was equal to 0.3 mcg/ml and was similar to the efficacy of the anti-HSV agent acyclovir (ACV). The IC50 of a single dose of gramicidin required to protect WI-38 from cytolytic effect of HSV was 10 mcg/ml at day 5 postinfection. Importantly, gramicidin suppressed the replication of ACV-resistant thymidine kinase and polymerase HSV mutants at doses effective against ACV-sensitive strains.
(§2) Human embryonic lung fibroblasts WI-38 (CCL-75, ATCC, Rockville, Md.) were grown in RPMI medium 1640 with 10% FBS, L-glutamine, and penicillin/streptomycin (GIBCO, Grand Island, N.Y.) at 37° C. with 5% CO2 air atmosphere. Herpes viruses that were tested for susceptibility to gramicidin are own in Table 1.
(§3) One day prior to the assay WI-38 monolayers were trypsinized with 0.25% trypsin/EDTA (Sigma) and plated in 96-well microculture plates at seeding concentration 10^5 cells per well. The next day triplicate wells of WI-38 monolayers were exposed to serial 10-fold dilutions (range 10 mcg/ml-1 ng/ml) of gramicidin or ACV. Positive control wells and drug-exposed wells containing 180 mcl of medium received 20 mcl ahquots of HSV-1 or HSV-2 preparation at 5,000 TCID50 per well and were incubated further for 24 hours. Thereupon, the supernatants from infected WI-38 fibroblasts were collected and levels of HSV antigen were examined by ELISA (Premier™ HSV, Meridian Diagnostics Inc., Cincinnati, Ohio) according to the manufacturer's instructions. The primary antibody supplied with this ELISA kit recognizes HSV antigens of both virus types. The amount of HSV antigen, corresponding to levels in the inoculum, was subtracted as a blank value from experimental values reached upon virus propagation in host WI-38 cells. IC50 doses were estimated from dose-response curves plotted as a function of log concentrations of drugs.

VR-734 strain of HSV-2 = experiment: Protection of WI-38 fibroblasts against cytolytic action of HSV, MTS assay day 5; type: cell-based, herpes simplex virus type 2 (HSV-2); conditions: day 5 postinfection, single dose
Procedure: Inoculated WI-38 cells were grown in the presence of ten-fold dilutions of gramicidin or ACV for five days until all untreated control cells were dead as a result of lytic HSV infection. The culture wells were then exposed for 4 hours to MTS tetrasolium salt and phenazine methosulfate preparation (Cell Titer^96, Promega, Madison, Wis.) and the optical density of formazan dye was measured in a plate reader at 450 nm with reference filter at 620 nm. The obtained values were then compared to both the absorbance values of dead cells and optical density of uninfected viable cells grown in the same plate. The percent of surviving WI-38 cells in drug-protected cultures was determined from dose-response curves as a function of log concentrations of test drugs.

HSV-2 = experiment: HSV antigen ELISA, viral yield in WI-38 fibroblasts at 24 hours; type: cell-based, herpes simplex virus type 2 (HSV-2)
Procedure: as §1, §2, §3

WI-38 cells [1] = experiment: Viability of WI-38 cells by MTS assay
Procedure: (§4) The effect of test compounds on cell viability was measured by two colorimetric assays as follows. WI-38 cells were grown in the presence or absence of ten-fold dilutions of gramicidin or ACV for two days. The cells were then exposed to MTS/phenazine methosulfate as described above. The conditions for the second, lactate dehydrogenase (LDH) assay, were similar to the MTS test except that a different cell viability parameter was measured. This assay quantitatively measures the stable cytosolic enzyme, LDH, that is released upon cell lysis in much the same way as ^51 Cr is released in radioactive assays. The results were evaluated using an enzymatic assay which measures the conversion of INT tetrazolium salt into red formazan product (CytoTox^96, Promega, Madison, Wis.). A standard 96-well plate reader was set to record wavelength absorbance at 490 nm. The residual LDH activity present in incubation medium was subtracted as a blank value. The amount of LDH released from drug-exposed cells was compared to untreated and detergent-lysed controls according to the formula provided by the manufacturer.

sperm motility = experiment: 2-minute sperm immobilization assay (sperm motility by CASA); type: cell-based, human; conditions: for times higher dose required to achieve the effect of gramicidin: sperm motility, compounds alone
Procedure: The tests were conducted on unprocessed semen samples. […] Ejaculate samples from 3 normospermic volunteers were collected after 2-4 days of abstinence and allowed to liquefy for 20 minutes at 37° C. The sperm count was within the range of 60-240×10^6 cells/ml and the percentage of motile cells was over 50%. Serial dilutions of gramicidin, nonoxynol-9, EDTA or combinations thereof were mixed with fresh semen and sperm count, motility and morphology were assessed using computer-assisted semen analysis (CASA). Each 50 mcl sample of semen was mixed in a glass tube with predetermined concentration of test compounds, vortexed for 10 seconds, and left at room temperature for 2 minutes. Thereupon, a small 10 mcl portion of the sample was placed on a glass slide and motility of the sperm was evaluated automatically.

[2] = tested on: sperm penetration into lamb cervical mucus; experiment: Cervical mucus penetration assay; type: cell-based, human; conditions: for motility of spermatozoa found in drug-pretreated mucus: at the time of observation, N9 even after 1 hour of incubation
Procedure: Glass capillary tubes (1 mm×100 mm) were filled with freshly collected lamb cervical mucus and placed vertically into solutions with test compounds as described earlier. After 30 minutes, incubation to allow the diffusion of drugs into mucus, the mucus-containing tubes were dipped vertically into cuvettes with the semen. After 15 minutes, the sperm that moved upwards from the bottom of the capillary tube was evaluated under microscope for traveled distance and the percent of motile sperm.

HIV = conditions: 10 ng/ml; cited from earlier work
HSV type 1 and 2 = experiment: HSV antigen ELISA, summary over HSV-1 and HSV-2 isolates; type: cell-based, herpes simplex viruses (HSV) type 1 and 2
sperm viability [3] = experiment: Lactate dehydrogenase (LDH) release assay on sperm; type: cell-based, human; conditions: high doses, serial dilutions 100 mcg-1 ng per ml
Description: The disruption of the sperm membrane by N9-like detergents such as Triton X-100 or by gramicidin S leads to release of intracellular LDH isoenzymes or membrane-associated LDH-X, and an increase in LDH activity can be measured by assaying the supernatant of sperm suspension. The increase in LDH activity can be thus used as an indicator of drug toxicity since cytosolic LDH is released upon cell lysis in the same way as 51Cr is released in radioactive assays. The assay setting is similar to XTT assay and released LDH is quantitated with commercial enzymatic assay (CytoTox96, Promega, Madison, Wis.). An ordinary plate reader was used to record visible wavelength absorbance at 490 nm. The residual LDH activity usually present in seminal plasma or in incubation medium was subtracted as blank values and the % of toxicity was determined as directed by manufacturer's instruction. This assay is very sensitive and results are obtained within 30 minutes.
(§5) These two methods, XTT and LDH, were used simultaneously on the same semen samples to determine the toxic effect of gramicidin. Both quantitative tests, measuring two independent indicators of sperm viability, indicate that gramicidin is a potent nontoxic agent with antifertility potential.

sperm viability [4] = experiment: Tetrazolium dye reduction (XTT) assay on sperm; type: cell-based, human; conditions: highest 100 mcg/ml concentration
Procedure: The spermatozoa from fertile donors are capable of nitroblue tetrazolium reduction in a same way as the fibroblasts in Example 1. Briefly, sperm were suspended in a 96-well plate in the presence of serial ten-fold dilutions of test compounds and each 180 mcl well received 20 mcl of XTT solution at final concentration 1 mg/ml of XTT (Sigma) with 1% w/v of PMS (Aldrich, Milwaukee, Wis.). Drug untreated spermatozoa served as positive viability references.
as §5

WI-38 cells [5] = experiment: LDH release from drug-exposed WI-38 cells; conditions: 2 days of treatment, highest 10 mcg dose
Procedure: as §4

[6] = 0% EDTA, 2 minutes, unprocessed semen
[7] = 0.1% EDTA, 2 minutes, unprocessed semen

## Nc1nc2c(ncn2COCCO)c(=O)[nH]1 [Acyclovir, [2-hydroxyethoxymethyl]guanine]
HSV-1; Human alphaherpesvirus 1, WI-38, read-out: IC50 by HSV antigen ELISA, HSV type 1 strain DM2.1, TK-
  IC50: 77.3 µg/mL (≈ 343 µM)
HSV-1; Human alphaherpesvirus 1, WI-38, read-out: IC50 by HSV antigen ELISA, HSV type 1 strain KOS, ACV-sensitive
  IC50: 0.4 µg/mL (≈ 1.78 µM)
HSV-1; Human alphaherpesvirus 1, WI-38, read-out: IC50 by HSV antigen ELISA, HSV type 1 strain PAAr, Polymerase-
  IC50: 52.4 µg/mL (≈ 233 µM)
VR-734 strain of HSV-2; Human alphaherpesvirus 2, WI-38, 120 h, read-out: IC50 for protection of WI-38 from cytolytic effect of HSV
  IC50: 0.2 µg/mL (≈ 0.888 µM)
HSV-2; Human alphaherpesvirus 2, WI-38, 24 h, read-out: IC50 on HSV replication by antigen ELISA, VR-734 strain of HSV-2, WI-38 cells, day 1 postinfection
  IC50: 0.2 µg/mL (≈ 0.888 µM)
HSV-2; Human alphaherpesvirus 2, WI-38, read-out: IC50 by HSV antigen ELISA, HSV type 2 strain 186, ACV-sensitive
  IC50: 0.1 µg/mL (≈ 0.444 µM)
HSV-2; Human alphaherpesvirus 2, WI-38, read-out: IC50 by HSV antigen ELISA, HSV type 2 strain 8708, TK altered
  IC50: 9.9 µg/mL (≈ 44 µM)
HSV-2; Human alphaherpesvirus 2, WI-38, read-out: IC50 by HSV antigen ELISA, HSV type 2 strain Kost, TK altered
  IC50: 15.8 µg/mL (≈ 70.2 µM)
HSV-2; Human alphaherpesvirus 2, WI-38, read-out: IC50 by HSV antigen ELISA, HSV type 2 strain VR-734, ACV-sensitive
  IC50: 0.2 µg/mL (≈ 0.888 µM)
WI-38 cells [1]
  toxicity to host WI-38 cells: not toxic

## O=C(O)CN(CCN(CC(=O)O)CC(=O)O)CC(=O)O [EDTA, ethylenediaminetetraacetic acid]
Sperm motility; [6]
  IC100 on sperm motility: 5,000 mcg/ml
Sperm motility
  times higher dose required to achieve the effect of gramicidin: ≥ 1250 times
[2]; 0% EDTA
  IC100 in cervical mucus penetration assay: 1,200 mcg/ml

## CCCCCCCCCc1ccc(OCCOCCOCCOCCOCCOCCOCCOCCOCCO)cc1 [Nonoxynol-9, nonoxynol-9]
Sperm motility
  enhancement in activity upon combination with EDTA: less than a two-fold enhancement
  times higher dose required to achieve the effect of gramicidin: At least 50 times
Sperm motility; [6]
  IC100 on sperm motility: 200 µg/mL
Sperm motility; [7]
  IC100 on sperm motility: 125 µg/mL
Sperm motility; at 4 mcg/ml, 2 minutes
  effect on sperm motility: no effect
[2]; 0% EDTA, no IC100 at the highest tested dose
  IC100 in cervical mucus penetration assay: > 1000 µg/mL
[2]; 0.1% EDTA
  IC100 in cervical mucus penetration assay: 100 µg/mL
[2]; Homo sapiens, Sperm, 0% EDTA, footnote: value represents IC50
  IC50: 900 µg/mL (≈ 1460 µM)
[2]
  motility of spermatozoa found in drug-pretreated mucus: retained motility

## gramicidin D
HIV
  activity against lab strains and clinical isolates of HIV: active
Sperm motility; [6]
  IC100 on sperm motility: 4 µg/mL
Sperm motility; [7]
  IC100 on sperm motility: 0.01 µg/mL
Sperm motility; after washing sperm and resuspending in Earle's balanced salt solution
  reversibility of effect on sperm motility: irreversible effect
Sperm motility; sperm immobilization, without EDTA
  times more potent than N9: 50 times
Sperm motility; with 0.1% of EDTA
  IC100 on sperm motility: 0.01 µg/mL
HSV type 1 and 2; average against 3 HSV-1 and 4 HSV-2 isolates
  average 50% inhibitory dose (IC50): 0.3 µg/mL
HSV type 1 and 2; both HSV type 1 and 2, 24 hours, range over isolates
  IC50, reduction in viral yield by ELISA: 0.1 to 0.4 µg/mL
HSV-1; HSV type 1 strain DM2.1, TK-
  IC50 by HSV antigen ELISA: 0.3 µg/mL
HSV-1; HSV type 1 strain KOS, ACV-sensitive
  IC50 by HSV antigen ELISA: 0.2 µg/mL
HSV-1; HSV type 1 strain PAAr, Polymerase-
  IC50 by HSV antigen ELISA: 0.4 µg/mL
Sperm viability [3]
  effect on LDH release from sperm: negligible
Sperm viability [4]
  effect on mitochondrial hydrogenases of sperm (XTT): no effect
VR-734 strain of HSV-2
  IC50 for protection of WI-38 from cytolytic effect of HSV: 10 µg/mL
WI-38 cells [5]
  excess LDH released, relative to baseline of untreated controls: ≤ 15%
HSV-2; HSV type 2 strain 186, ACV-sensitive
  IC50 by HSV antigen ELISA: 0.1 µg/mL
HSV-2; HSV type 2 strain 8708, TK altered
  IC50 by HSV antigen ELISA: 0.3 µg/mL
HSV-2; HSV type 2 strain Kost, TK altered
  IC50 by HSV antigen ELISA: 0.2 µg/mL
HSV-2; HSV type 2 strain VR-734, ACV-sensitive
  IC50 by HSV antigen ELISA: 0.3 µg/mL
HSV-2; VR-734 strain of HSV-2, WI-38 cells, day 1 postinfection
  IC50 on HSV replication by antigen ELISA: 0.3 µg/mL
WI-38 cells [1]; MTS, day 2, highest tested 10 mcg/ml dose
  effect on viability (metabolic activity) of WI-38 cells: no significant effect
WI-38 cells [1]; at concentrations that exceeded IC50 by at least two orders of magnitude
  toxicity to host WI-38 cells: not toxic
[2]; 0% EDTA
  IC100 in cervical mucus penetration assay: 3 µg/mL
[2]; 0.1% EDTA
  IC100 in cervical mucus penetration assay: 0.001 µg/mL
[2]
  motility of spermatozoa found in drug-pretreated mucus: immotile
[2]; with 0.1% of EDTA
  concentration that completely prevented penetration of sperm into mucus: 1 ng/mi
